Here are results for 1 molecule from PMC4912077 (PLoS ONE, 2016).

Experiment [1] has as its system PCP site within the NMDAR channel. The note with it: [3H]-(+)-MK-801, rat forebrain, cited from earlier work.
Experiment [2] has the same test system. The experiment in a line: NMDAR binding, [3H]-MK-801 displacement in rat forebrain homogenate.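 Further: IC50 by nonlinear regression of percent specific binding versus log concentration, Ki from IC50 via Cheng-Prusoff, raw counts in CPM, duplicates repeated at least three times.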 The note with it: lower affinity.
Protocol: The reaction was terminated by vacuum filtration using a 24 well cell harvester (Brandel, Gaithersburg, MD) over presoaked GF/B glass fiber filters (Brandel, Gaithersburg, MD). Filters were washed with room temperature assay buffer (3 x 5 mL). […] IC50 values were determined in Graphpad Prism 5.0 using non-linear regression with log-concentration plotted against percent specific binding. […] Ki values were calculated using the equation of Cheng and Prusoff [24]. […] Protein concentration was determined via the Bradford method using Coomassie protein assay reagent (Sigma, USA) [25] with rat albumin (Sigma, USA) as standard. Experiments were performed in duplicate and repeated a minimum of three times.
The test system of experiment [3] is Sprague–Dawley rats. Nature of the experiment: Pre-pulse inhibition (PPI) of acoustic startle in rats. The format is in vivo, rat. The note with it: higher potency. How it is done:
Male Sprague–Dawley rats from Harlan Industries (Indianapolis, IN, USA; initial weight 250–275 g) were housed in pairs under a 12-h reverse light/dark cycle (lights off at 0700 h). Use of a reversed light/dark cycle allows behavioral testing to be conducted during the awake phase of the light/dark cycle. Food and water were available ad libitum. Animals were acclimatized for approximately 1 wk after arrival prior to behavioral testing and maintained in Association for Assessment and Accreditation of Laboratory Animal Care (AAALAC)-approved facilities that meet all federal and state guidelines. Procedures were approved by the University of California San Diego institutional animal care and use committee. Principles of laboratory animal care were followed.
DPH hydrochloride and 2-MXP hydrochloride were dissolved in water containing 5% Tween-80 and administered subcutaneously, 10-min prior to the start of the startle test session. The injection volume was 1 ml/kg.
Eight startle chambers (SR-LAB system, San Diego Instruments, San Diego, CA, USA) were used to measure startle reactivity in rats. The startle test chambers were sound-attenuated, lighted, and ventilated enclosures containing a clear nonrestrictive cylindrical Plexiglas stabilimeter, 8.2 cm in diameter. A high-frequency loudspeaker mounted 24 cm above the Plexiglas cylinder produced all acoustic stimuli. The peak and average amplitudes of the startle response were detected by a piezoelectric accelerometer. At the onset of the startling stimulus, 100 1-ms readings were recorded, and the average amplitude was used to determine the magnitude of the startle response (measured in arbitrary units).
Acoustic startle test sessions consisted of startle trials (pulse-alone) and prepulse trials (prepulse + pulse). The pulse-alone trial consisted of a 40-ms 120-dB pulse of broadband white noise. Prepulse + pulse trials consisted of a 20-ms acoustic prepulse, an 80-ms delay, and then a 40-ms 120-dB startle pulse (100-ms onset–onset). There was an average of 15 s (range = 6–22 s) between trials. During each inter-trial interval, the movements of the animals were recorded once to measure response when no stimulus was present (data not shown). Each startle session began with a 5 min acclimation period to a 65-dB broadband noise that was present continuously throughout the session. One week after arrival, animals were tested in a brief baseline startle/PPI session to create treatment groups matched for levels of startle and PPI. The startle test session contained 12 pulse-alone trials and 36 prepulse + pulse trials (12 prepulses each of 68-, 71-, and 77-dB [equivalent to 3-, 6-, and 12-dB above background]) presented in a pseudo-randomized order. Six pulse-alone trials were presented at the beginning and the end of the test session but were not used in the calculation of PPI values. Raw data for all PPI experiments are provided as supporting information (S5 File).
The amount of PPI was calculated as a percentage score for each prepulse + pulse trial type: %PPI = 100−{[(startle response for prepulse + pulse trial)/(startle response for pulse-alone trial)] × 100}. Startle magnitude was calculated as the average response to all of the pulse-alone trials. PPI data were analyzed with two-factor analysis of variance (ANOVA) with treatment as the between-subjects factor and trial type (prepulse intensity) as a repeated measure. For experiments in which there was no significant interaction between drug and prepulse intensity, PPI data were collapsed across prepulse intensity and average PPI was used as the main dependent measure. ED50 values were calculated using nonlinear regression. Startle magnitude data were analyzed with one-factor ANOVA. Post-hoc analyses were performed using Tukey’s studentized range method. The alpha level was set at 0.05.

Experiment [4] relates to Sprague–Dawley rats. The note with it: rat; cited from earlier work.

With `c1ccc(C2(N3CCCCC3)CCCCC2)cc1` [PCP, Phencyclidine], the IC50 in experiment [1] is 0.091 ± 0.0013 µM. In addition, the Ki in experiment [1] (read-out: Ki ± SEM) was 0.0579 ± 0.0008 µM. For the same molecule, the “[3H]MK-801 displacement affinity relative to DPH” value in experiment [2] is 3 fold. For the same molecule, the “potency to alter PPI relative to DPH” value with Sprague–Dawley rats [3] is reported as 10 fold. Besides, the “ED50 for disruption of PPI” value in the experiment on Sprague–Dawley rats [4] was 3.15 µmol/kg.
